Source: patent publication US6645965B1, “Nitrate salts of antihypertensive medicines” (priority 1998, dated 2003)

Legend:
[1] = tested on: arterial hypertension induced by L-NAME; assay: Arterial hypertension induced by L-NAME, systemic arterial pressure by caudal way; assay type: in vivo, rat; conditions: Carrier 170 ± 7
Method: The inhibiting effect of Losartan nitrate on the arterial hypertension has been assayed by using two experimental models: the arterial hypertension induced by L-NAME (see the preceding example) and the muscular contraction produced by Angiotensin II. In the first experiment Wistar adult male rats (235-284 g) received for 6 weeks drinking water containing L-NAME. at a 60-70 mg/100 ml concentration, equivalent to a daily dose of about 60 mg/Kg. […] One hour after the last treatment, the systemic arterial pressure was determined by caudal way, as described by Zatz, Lab. Anim. Sci., 42, 198, 1990. […] In the second experiment the method described by Taylor (see Example 10) has been followed as described before. The prostatic part of the isolated deferent duct of rats (200-220 g) was removed and dipped in a physiologic solution at 37° C. and then contracted by transmural stimulation (95% of the maximum stimulation, 0.2 Hz).

[2] = tested on: muscular contraction produced by Angiotensin II (isolated ileum); assay: Contraction of isolated guinea pig ileum produced by Angiotensin II; conditions: Angiotensin II 10 mcg/ml, compound 10^−6M, Carrier = 100
Description: In the second experiment (contraction produced by Angiotensin II), the method described by P. C. Wong et al., Hypertension, 13, 489-497, 1989 has been followed.

[3] = tested on: prostatic part of the isolated deferent duct contracted by transmural stimulation; assay: Vascular contraction of isolated rat deferent duct induced by electric stimulation; conditions: compound 10^−6 M, within 5 minutes, Carrier = 100
Description: The inhibiting effect of Minoxidil nitrate on the arterial hypertension has been determined by using two experimental models: the arterial hypertension induced by L-NAME (see Example 10) and the vascular contraction induced by electric stimulation. In the first pharmacological experiment the rats have been treated as described in the pharmacological experiment with L-NAME of Example 11. In the second experiment the method described by Taylor (see Example 10) has been followed as described before. The prostatic part of the isolated deferent duct of rats (200-220 g) was removed and dipped in a physiologic solution at 37° C. and then contracted by transmural stimulation (95% of the maximum stimulation, 0.2 Hz).
The vasorelaxing activity is expressed as the reduction of the contractive neurogenic response, determined within 5 minutes from the. addition of the tested compound at a 10^−6 M concentration.

[4] = tested on: ileal contraction caused by calcium chloride; assay: Ileal contraction caused by calcium chloride (calcium antagonist activity); conditions: guinea pig ileum, calcium chloride 20 mcg/ml, compound 10^−6 M; Carrier = 100
Method: In the latter, the experimental model adapted was that of the ileal contraction caused by calcium chloride, according to the method described by M. J. Spedding, J. Pharmacology 83, 211-220, 1984. Ileus segments taken from guinea pig (300-350 g) were maintained at 37° C. in a physiologic solution not containing calcium ions and then stimulated by calcium chloride addition (final concentration 20 mcg/ml). The calcium antagonist activity was determined as the reduction of the ileal contraction following addition of each of the test compounds at a concentration 10^−6 M.

[5] = tested on: bronchoconstriction induced in guinea pigs by the Capsaicin injection; assay: Experimental bronchoconstriction induced by Capsaicin injection (tidal air variation, Konzett apparatus); assay type: in vivo, guinea pig
Method: The compounds at a dose of 10 mg/kg and the corresponding carrier have been administered to the guinea pigs (groups of 6 animals each) by intraperitoneal route for three consecutive days. The animals were prepared according to the method of Del Soldato et al. J. Pharmacol. Methods 5 279 1981. 45 minutes later 0.1 ml of a Capsaicin saline solution (1 μg/Kg) was injected to the animals intravenously. The tidal air variation before and after the Capsaicin administration was measured by a Konzett apparatus, modified as described in the above mentioned reference, connected to a polygraphic system. The effects of the compounds and of their corresponding nitrate salts on the experimental bronchoconstriction induced in guinea pigs by the Capsaicin injection are reported in Table 1.

[6] = tested on: isolated human cavernous tissue; assay: Relaxation of isolated human cavernous tissue strips precontracted with adrenaline; conditions: 10^−6 M; adrenaline 3.10^−6 M
Description: (§1) The relaxation effect of the cavernous artery and of the human cavernosum corpora (vasodilating effect at a peripheric level) was also studied. It was used the technique described by R. G. Hempelmann et al., European Journal of Pharmacology 276, 277-280 (1995), employing erectile tissues coming from patients submitted to surgical operation. The cavernous arteries have been isolated and cleaned up from the surrounding connective tissue. Segments of about 2 mm length were obtained and were mounted in a myograph equipment.
(§2) After having drawn an experimental curve diameter/tension, the specimens have been adjusted to a diameter corresponding to 90% of the one reached in the presence of a transluminal pressure of 100 mm Hg; after a stabilization period of about 60 minutes, contraction was effected by adrenaline 3.10^−6 M. After 15 minutes a dose corresponding to 10^−6 M of each of the tested compounds was added and the relaxation percentage was recorded.
A second series of experiments has been carried out according to the same protocol, on the isolated strips, 3×3×5 mm, of cavernous tissue, isometrically suspended in baths for isolated organs, under a 5-10 mN tension.

[7] = tested on: isolated human cavernous artery; assay: Relaxation of isolated human cavernous artery pre-contracted with adrenaline; conditions: 10^−6 M; adrenaline 3.10^−6 M
Description: as §1, §2

[8] = tested on: prostatic part of the deferent vessel contracted by transmural stimulation; assay: Prostatic deferent vessel constriction induced by submaximum electric stimulation, rats treated with L-NAME; design: species or system rat; conditions: 10 mg/kg s.c. daily for five days, tested substance 10^−6 M, within 5 minutes, Carrier = 100
Method: The compounds have been administered in physiological solution. The control group has been treated with the carrier (physiologic solution) only. The vaso-relaxing activity of Sildenafil nitrate was determined by using the experimental model of the prostatic deferent vessels constriction, induced by submaximum electric stimulation (D. A. Taylor et al., J. Pharmacol. Exp. Ther. 224, 40-45 1983), in rats treated with N^w-nitro-L-arginine methyl ester (L-NAME) as described by Ribeiro et al., Hypertension, 20, 298, 1992. […] […] One hour after the last treatment,. the animals were sacrificed and the prostatic part of the deferent vessel was removed, dipped in a physiologic solution at 37° C., and contracted by transmural stimulation (95% of the maximum stimulation, 0.2 Hz). The reduction of the neurogenic contractive response, which results within 5 minutes from the addition of the tested substance at a concentration of 10^−6 M, is taken as a measure of the vasorelaxing activity.

[9] = tested on: left atrium specimens stimulated by Isoprenaline; assay: Inotropic-positive effect caused by Isoprenaline in guinea pig left atrium (beta-adrenolytic activity); conditions: Isoprenaline 10 mcg/ml, compound 10^−6M, Carrier = 100
Method: In the latter experiment the method described by Grodzinski et al., Arch. Int. Phramacodyn., 191, 133-141, 1971 was followed. The left atrium specimens taken from guinea pigs (300-350 g) were maintained at 32° C. in a physiologic solution wherein the concentration of calcium ion was ⅓ lower and stimulated by Isoprenaline (10 mcg/ml). The beta-adrenolitic activity is expressed as the reduction of the inotropic-positive effect (increase of the cardiac muscle contraction) following addition of the compound under examination at a 10^−6M concentration.

[10] = Diuretic effect in rats (urine volume over 6 hours); assay type: in vivo, rat; conditions: 10 mg/Kg subcutaneously, urine volume over 6 hours as percentage of carrier group
Method: In the latter experiment the diuretic effect was studied according to the method described by W. L. Lipschwitz et al. J. Pharmacol. Exp. Ther., 79, 97-110, 1943. No 3 groups of 6 rats (200-220 g) each, stalled in metabolic cages received drinking distilled water (25 ml/Kg p.o.). Each group was then subcutaneously injected with Amiloride nitrate (10 mg/Kg), Amiloride (10 mg/Kg) or carrier respectively. The urine volume was collected during a period of 6 hours following drug administration, measured in ml. The diuretic effect is expressed as percentage of the collected urine volume calculated on that of the group treated with the carrier.

gastric tissue = assay: Gastric toxicity in rats given ethanol 50% by os (gastric lesions); assay type: in vivo; conditions: Sprague-Dawley male rats (n=10), 10 mg/Kg i.p. as free base, ethanol 50% by os 30 minutes later; Controls 50
Method: 5 groups of Sprague-Dawley male rats (n=10), were fasted for 24 hours. 4 groups were then respectively treated i.p. with Sildenafil, Zaprinast, and the relevant nitrate salts of said drugs. One group was not treated and was tha control group. 30 minutes later 1 ml of ethanol 50% in water was given by os to the animals.
One hour later the animals were sacrificed. The stomach was removed and the gastric tissue was macroscopically examined.
The results are reported in Table X. In the Table the gastric toxicity given as % incidence is the number of rats in a group showing gastric lesions.

[11] = Table V, L-NAME rats, 10 mg/kg s.c. daily for five days, one hour after last treatment
[12] = Table VI, L-NAME rats treated as in Example 11
[13] = Table VIII, L-NAME rats, model of Example 11
[14] = guinea pigs, 10 mg/kg intraperitoneal for three consecutive days, Capsaicin 1 μg/Kg i.v., Carrier = 100
[15] = Table VII, L-NAME rats, model of Example 11

CCCCc1nc(Cl)c(CO)n1Cc1ccc(-c2ccccc2-c2nn[nH]n2)cc1 [Losartan, reference compound]
Average arterial pressure (mm Hg) [1, 11]: 153 ± 5 mm Hg | Effect on the contraction of the smooth musculature % (n = 5) [2]: 33%

Nc1cc(N2CCCCC2)nc(N)[n+]1[O-] [Minoxidil, 6-(1-piperidiny-1)-2,4-pyrimidinediamine 3-oxide, reference compound]
Effect on the vasoconstriction % (n = 5) [3]: 18% | Average arterial pressure (mm Hg) [1, 12]: 132 ± 6 mm Hg

COC(=O)C1=C(C)NC(C)=C(C(=O)OCCN(C)Cc2ccccc2)C1c1cccc([N+](=O)[O-])c1 (stereo not shown) [Nicardipine, 1,4-dihydro-2,6-dimethyl-4-(3-nitrophenyl)-3,5-pyridinedicarboxylic acid methyl 2[methyl-(phenylmethyl)amino]ethyl ester, reference compound]
Average arterial pressure (mm Hg) [1, 13]: 122 ± 6 mm Hg | Contracturing effect % (n = 5) [4]: 25%

CC(C)NCC(O)COc1cccc2ccccc12 (stereo not shown) [Propranolol, reference compound]
Bronchoconstrictive effect (%) [5, 14]: 280%

[NH-]c1c[n+](N2CCOCC2)no1 [SIN-1]
Relaxing effect on the isolated human cavernous tissue precontracted with adrenaline (n = 4) (relaxation %) [6]: 33 ± 4% | Relaxing effect on the isolated human cavernous artery pre-contracted with adrenaline (n = 5) (relaxation %) [7]: 36 ± 7%

CCCc1nn(C)c2c(=O)[nH]c(-c3cc(S(=O)(=O)N4CCN(C)CC4)ccc3OCC)nc12 [Sildenafil]
Relaxing effect on the isolated human cavernous tissue precontracted with adrenaline (n = 4) (relaxation %) [6]: 42 ± 6% | Effect on vasoconstriction (%) [8]: 68% | Relaxing effect on the isolated human cavernous artery pre-contracted with adrenaline (n = 5) (relaxation %) [7]: 25 ± 4%

CC(C)(C)NC[C@H](O)COc1nsnc1N1CCOCC1 [Timolol, reference compound]
Average arterial pressure (mm Hg) [1, 15]: 144 ± 5 mm Hg | Inotropic positive effect % (n = 5) [9]: 32% | Bronchoconstrictive effect (%) [5, 14]: 188%

Amiloride Nitrate Salt [Amiloride.HNO3]
Average arterial pressure (mm Hg) ([1]; Table IX, L-NAME rats, model of Example 11): 110 ± 5 mm Hg | Diuretic effect % (n = 5) [10]: 215%

Losartan nitrate [Losartan.HNO3]
Average arterial pressure (mm Hg) [1, 11]: 115 ± 4 mm Hg | Effect on the contraction of the smooth musculature % (n = 5) [2]: 12%

Minoxidil nitrate [Minoxidil.HNO3]
Effect on the vasoconstriction % (n = 5) [3]: 5% | Average arterial pressure (mm Hg) [1, 12]: 110 ± 6 mm Hg

Nicardipine Nitrate Salt [Nicardipine.HNO3]
Average arterial pressure (mm Hg) [1, 13]: 108 ± 3 mm Hg | Contracturing effect % (n = 5) [4]: 8%

Propranolol nitrate salt [Propranolol.HNO3]
Bronchoconstrictive effect (%) [5, 14]: 110%

Sildenafil Nitrate Salt [Sildenafil.HNO3]
Relaxing effect on the isolated human cavernous tissue precontracted with adrenaline (n = 4) (relaxation %) [6]: 68 ± 7% | Effect on vasoconstriction (%) [8]: 25% | Relaxing effect on the isolated human cavernous artery pre-contracted with adrenaline (n = 5) (relaxation %) [7]: 61 ± 3%

Timolol nitrate salt [Timolol.HNO3]
Average arterial pressure (mm Hg) [1, 15]: 108 ± 8 mm Hg | Inotropic positive effect % (n = 5) [9]: 13% | Bronchoconstrictive effect (%) ([5]; guinea pig, in vivo, 10 mg/kg): 94%

Zaprinast Nitrate [Zaprinast.HNO3]
Gastric toxicity (% incidence) (gastric tissue): 30 % incidence
